How the values were obtained:
[1] = system: p-Src protein; assay: p-Src inhibition by increasing lidocaine doses in human pancreatic cancer cells (Western blot); assay type: cell-based; settings: 30 minutes of treatment, 0-100 µM tested
Experimental: On day 1, pancreatic cancer cells were cultured until 300,000 cells per well in a 6 well plate were obtained. On day 2, the cells were treated with 0, 0.5, 1,5, 10, 15, 30, 50 and 100 µM lidocaine for 30 minutes. Plates were then collected and washed with phosphate buffered saline and stored at -80° C. Cells were subsequently lysed with 100 µl of radioimmunoprecipitation assay buffer with protease and phosphatase buffers.
Protein estimation was done using a Bradford assay under the following conditions: • A Western Blot was stripped with 6 M guanidine hydrochloride after phosphor-Src protein blocking to probe with total Src protein. • 10% SDS-PAGE 10 well Blocking: 5% bovine serum albumin for p-Src blot. • P-Src-Tyr416 (GeneTex GTX81151) Rb: 1:1000 in 5% bovine serum albumin, Overnight. • Total Src (Cell Signaling Technology 2108S ) Rb mAb 1:1000 overnight in 5% milk. • GAPDH (Invitrogen# AM4300) : 1:5000 in 5% milk overnight. • Wash: 4x for 5 minutes each with 1x TBST. • Developed using 50% femto for the p-Src protein and homemade ECL substrate for total Src and GAPDH protein.

[2] = system: Src phosphorylation at tyrosine 419; settings: cited from earlier work
[3] = system: LPS-challenged C57BL/6 mice; assay: LPS-induced inflammation model, H&E histopathology of lungs and spleen; assay type: in vivo, mouse
Experimental: C57BL/6J mice (6-8 weeks) were purchased from Charles River Laboratories (USA) and acclimatized for at least 1 week before use. All mice were housed in a pathogen-free facility. The mice received LPS for 24 hours. Following 24 hours, mice were treated either with lidocaine alone or methylnaltrexone alone or a combination of both, as shown in Table 1.
At the conclusion of the study, the blood and tissue samples were collected for further study. The serum was used to determine pro-inflammatory cytokines using the LEGENDplex™ mouse inflammation panel (BioLegend, USA) kit followed by flow cytometry. The lungs and spleen tissue samples were used for hematoxylin and eosin (H&E) staining and immunohistochemical analyses for immune cells, including macrophages and natural killer (NK) cells, B cells, T cells, and its subsets. For histopathology and immunohistochemistry (IHC), tissue samples were prepared by cutting 4-µm sections from the paraffin blocks. IHC staining was performed by methods described earlier. The images were captured using bright field microscopy (Nikon Microscope). Two independent investigators evaluated the H&E and all immunohistochemical staining. For slide scoring, each investigator assessed the tissues and gave a score of 0 (no expression) to 4+ (strong uniform expression) as described previously. The data were expressed either as the mean ± SD or mean ± SEM by using Graph Pad Prism software.

[4] = system: p-Src / total Src; assay: Total Src and p-Src expression in MiaPaCa 2 human pancreatic cancer cell line (Western blot); assay type: cell-based; settings: 10 µM lidocaine, 100 nM methylnaltrexone or both, one hour
Experimental: (§1) • P-Src-Tyr416 (GeneTex # GTX81151) 1:2000 in 5% bovine serum albumin, at room temperature, 4 hours • Total Src (CST # 2108S) 1:3000 in 5% bovine serum albumin, at room temperature, 4 hours
(§2) Example 11 evaluated the effect of 10 µM lidocaine (L), 100 nM methylnaltrexone (M) and the combination of 10 µM lidocaine + 100 nM methylnaltrexone (L+M) for 1 hour on total Src and p-Src expression in a human pancreatic cancer cell line (MiaPaCa 2). Experimental conditions were identical to Example 10.

[5] = system: p-Src / total Src; assay: Total Src and p-Src expression in Panc1 human pancreatic cancer cell line (Western blot); assay type: cell-based; settings: 10 µM lidocaine, 100 nM methylnaltrexone or both, time points up to 6 hours, fresh media
Experimental: as §1
as §2, with “12” for “11”, “(L+M)” for “(L+M) for 1 hour”, “(Panc1) at multiple time points up to 6 hours, in fresh media.” for “(MiaPaCa 2).”

## CCN(CC)CC(=O)Nc1c(C)cccc1C [lidocaine, 2-diethylaminoaceto-2′,6′-xylidide]
[1]
  dose from which the level of p-Src protein is reduced: ≥ 10 µM
[2]; co-incubation with TNF-α and 10 µM lidocaine, p=0.012
  decrease in TNF-α-induced Src phosphorylation: 73%
[2]; lidocaine 1 nm-100 µM, 20 minutes, Kruskal-Wallis p=0.146
  decrease in Src phosphorylation at tyrosine 419: did not reach statistical significance
[3]; LPS challenged mice, lungs
  H&E staining, histopathology of lungs: perivascular edema and accumulation of mixed cell infiltration within blood, and lymphatic vessels
[3]; LPS challenged mice, spleen
  histological examination of spleen: increased number of erythrocytes in the red pulp, along with mild edema
[3]; mouse model, drug alone
  LPS-induced inflammation (overall conclusion): partially mitigate
[4]
  p-Src: attenuated p-Src
[5]
  p-Src: inconsistent effects on decreases in p-Src

— patent publication US20230158015A1, “DRUG COMBINATIONS FOR INHIBITING INFLAMMATION AND SRC KINASE ACTIVATION FOLLOWING INVASIVE SURGICAL PROCEDURES” (SINTETICA S.A., priority 2020, published 2023)
